# Assay results taken from patent US5281604A, “Angiotensin II receptor blocking 2,3,6-substituted quinazolinones” (American Cyanamid Company, priority 1993, dated 1994).
# Several values for one entry are separate records, joined by “and”; a condition that tells them apart may be missing. Identical values can stand only once.
# Test system: ANGIOTENSIN II (AII) VASOPRESSOR RESPONSE
# Test: AII Challenge: blockade of the angiotensin II vasopressor response in conscious spontaneously hypertensive rats
# Assay type: in vivo, rat (Male Okamoto-Aoki SHR)
# Conditions: 3 mg/kg i.v.
# From the text: By administering a compound of this invention to a rat, and then challenging with angiotensin II, a blockage of the vasopressor response is realized.
# Conscious Male Okamoto-Aoki SHR, 16-20 weeks old, weighing approximately 330 g are purchased from Charles River Labs (Wilmington, Mass.). Conscious rats are restrained in a supine position with elastic tape. The area at the base of the tail is locally anesthetized by subcutaneous infiltration with 2% procaine. The ventral caudal artery and vein are isolated, and a cannula made of polyethylene (PE) 10-20 tubing (fused together by heat) is passed into the lower abdominal aorta and vena cava, respectively. The cannula is secured, heparinized (1,000 I.U./ml), sealed and the wound is closed. The animals are placed in plastic restraining cages in an upright position. The cannula is attached to a Statham P23Db pressure transducer, and pulsatile blood pressure is recorded to 10-15 minutes with a Gould Brush recorder. (Chan et al., (Drug Development Res., 18:75-94, 1989).
# Angiotensin II (human sequence, Sigma Chem. Co., St. Louis, Mo.) of 0.05 and 0.1 ug/kg i.v. is injected into all rats (predosing response). Then a test compound, vehicle or a known angiotensin II antagonist is administered i.v., i.p. or orally to each set of rats. The two doses of angiotensin II are given to each rat again at 30, 60, 90, 120, 180, 240 and 300 minutes post dosing the compound or vehicle. The vasopressor response of angiotensin II is measured for the increase in systolic blood pressure in mmHg. The percentage of antagonism or blockade of the vasopressor response of angiotensin II by a compound is calculated using the vasopressor response (increase in systolic blood pressure) of angiotensin II of each rat predosing the compound as 100%. A compound is considered active if at 30 mg/kg i.v. it antagonized at least 50% of the response.
# [1] = AII 0.05 mcg/kg IV, 30 min post dose
# [2] = AII 0.05 mcg/kg IV, 60 min post dose
# [3] = AII 0.05 mcg/kg IV, 90 min post dose
# [4] = AII 0.05 mcg/kg IV, 120 min post dose
# [5] = AII 0.05 mcg/kg IV, 180 min post dose
# [6] = AII 0.05 mcg/kg IV, 240 min post dose
# [7] = AII 0.05 mcg/kg IV, 300 min post dose
# [8] = AII 0.1 mcg/kg IV, 30 min post dose
# [9] = AII 0.1 mcg/kg IV, 60 min post dose
# [10] = AII 0.1 mcg/kg IV, 90 min post dose
# [11] = AII 0.1 mcg/kg IV, 120 min post dose
# [12] = AII 0.1 mcg/kg IV, 180 min post dose
# [13] = AII 0.1 mcg/kg IV, 240 min post dose
# [14] = AII 0.1 mcg/kg IV, 300 min post dose
compound,measurement,setting,value
CCCCc1nc2ccc(C3CC4C(c5ccc(C)cc5)=NOC4O3)cc2c(=O)n1Cc1ccc(-c2ccccc2-c2nnn[nH]2)cc1 (stereo not shown) [Example 12],% Inhibition,[1],56%
same,Average Change,[1],16.5 mmHg
same,Control Before AII (single rat),[1],220 mmHg and 255 mmHg
same,Response After AII (single rat),[1],233 mmHg and 275 mmHg
same,Response Change (single rat),[1],13 mmHg and 20 mmHg
same,% Inhibition,[2],53%
same,Average Change,[2],17.5 mmHg
same,Control Before AII (single rat),[2],215 mmHg and 245 mmHg
same,Response After AII (single rat),[2],235 mmHg and 260 mmHg
same,Response Change (single rat),[2],20 mmHg and 15 mmHg
same,% Inhibition,[3],60%
same,Average Change,[3],15 mmHg
same,Control Before AII (single rat),[3],225 mmHg and 235 mmHg
same,Response After AII (single rat),[3],240 mmHg and 250 mmHg
same,Response Change (single rat),[3],15 mmHg
same,% Inhibition,[4],45%
same,Average Change,[4],20.5 mmHg
same,Control Before AII (single rat),[4],207 mmHg and 225 mmHg
same,Response After AII (single rat),[4],233 mmHg and 240 mmHg
same,Response Change (single rat),[4],26 mmHg and 15 mmHg
same,% Inhibition,[5],33%
same,Average Change,[5],25 mmHg
same,Control Before AII (single rat),[5],195 mmHg and 225 mmHg
same,Response After AII (single rat),[5],225 mmHg and 245 mmHg
same,Response Change (single rat),[5],30 mmHg and 20 mmHg
same,% Inhibition,[6],53%
same,Average Change,[6],17.5 mmHg
same,Control Before AII (single rat),[6],220 mmHg and 230 mmHg
same,Response After AII (single rat),[6],240 mmHg and 245 mmHg
same,Response Change (single rat),[6],20 mmHg and 15 mmHg
same,% Inhibition,[7],48%
same,Average Change,[7],19.5 mmHg
same,Control Before AII (single rat),[7],220 mmHg and 230 mmHg
same,Response After AII (single rat),[7],245 mmHg and 244 mmHg
same,Response Change (single rat),[7],25 mmHg and 14 mmHg
same,% Inhibition,[8],53%
same,Average Change,[8],18.5 mmHg
same,Control Before AII (single rat),[8],218 mmHg and 250 mmHg
same,Response After AII (single rat),[8],245 mmHg and 260 mmHg
same,Response Change (single rat),[8],27 mmHg and 10 mmHg
same,% Inhibition,[9],42%
same,Average Change,[9],22.5 mmHg
same,Control Before AII (single rat),[9],220 mmHg and 240 mmHg
same,Response After AII (single rat),[9],245 mmHg and 260 mmHg
same,Response Change (single rat),[9],25 mmHg and 20 mmHg
same,% Inhibition,[10],29%
same,Average Change,[10],27.5 mmHg
same,Control Before AII (single rat),[10],220 mmHg and 230 mmHg
same,Response After AII (single rat),[10],250 mmHg and 255 mmHg
same,Response Change (single rat),[10],30 mmHg and 25 mmHg
same,% Inhibition,[11],23%
same,Average Change,[11],30 mmHg
same,Control Before AII (single rat),[11],205 mmHg and 225 mmHg
same,Response After AII (single rat),[11],240 mmHg and 250 mmHg
same,Response Change (single rat),[11],35 mmHg and 25 mmHg
same,% Inhibition,[12],42%
same,Average Change,[12],22.5 mmHg
same,Control Before AII (single rat),[12],205 mmHg and 225 mmHg
same,Response After AII (single rat),[12],225 mmHg and 250 mmHg
same,Response Change (single rat),[12],20 mmHg and 25 mmHg
same,% Inhibition,[13],10%
same,Average Change,[13],35 mmHg
same,Control Before AII (single rat),[13],220 mmHg and 225 mmHg
same,Response After AII (single rat),[13],260 mmHg and 255 mmHg
same,Response Change (single rat),[13],40 mmHg and 30 mmHg
same,% Inhibition,[14],10%
same,Average Change,[14],35 mmHg
same,Control Before AII (single rat),[14],220 mmHg and 225 mmHg
same,Response After AII (single rat),[14],255 mmHg and 260 mmHg
same,Response Change (single rat),[14],35 mmHg
